Measured values reported in the NIST ThermoML archive (doi:10.1016/j.fluid.2013.09.051).

Experiment: xn = mol fraction of the nth substance listed
Settings: Liquid, Time-dependent Raman spectra, x1 = 0

C [methane] + O
binary diffusion coefficient [m2/s]
Settings	273 K	298 K	313 K	353 K	393 K	433 K	473 K
5000 kPa	–	1.61e-09	–	4.85e-09	8.59e-09	–	–
10000 kPa	–	1.63e-09	–	5e-09	8.7e-09	–	–
20000 kPa	7.02e-10	1.64e-09	2.39e-09	4.98e-09	8.68e-09	1.25e-08	1.71e-08
30000 kPa	–	1.6e-09	–	4.79e-09	8.45e-09	–	–
40000 kPa	–	1.62e-09	–	4.8e-09	8.08e-09	–	–
